{"source": "PubChem BioAssay AID326", "about": "(DTP/NCI, 2004)", "system": "CD2F1 mice, P388/DHAQ leukemia ip, median survival T/C", "assay": "NCI In Vivo Anticancer Drug Screen. Data for tumor model P388 Leukemia resistant to Dihydroxy Anthracenedione; NSC 299195 (intraperitoneal) in CD2F1 (CDF1) mice", "settings": "endpoint: median survival time, higher = longer survival", "method": "The antitumor activity of compounds was measured in mice bearing transplantable tumors. Survival or tumor size were measured and the results are expressed as the measurement made in the treated group (T) divided by the measurement made in the vehicle treated control group (C). The tumor model used in this assay is P388 Leukemia resistant to Dihydroxy Anthracenedione; NSC 299195 (intraperitoneal) in CD2F1 (CDF1) mice", "note": "Several values for one entry are separate records, joined by “and”; a condition that tells them apart may be missing. Equal values may be shown once. Toxic doses and inconclusive results are not listed. Numbered stars: 1 amine (or outer) side, 2 acyl side, 3 side chain; on linkers, the order of the positions; unused ones are H or OH. Bridge positions count the residues as written; N and C are the ends. Square brackets hold non-standard residues; d marks the D form. Peptide text beside a SMILES is read from it. I, II: the chains in the order shown. Actinocin(9to1) = Cc1c2oc3c(C)ccc(C(=O)[*:1])c3nc-2c(C(=O)[*:2])c(N)c1=O; aThr = C[C@H](O)[C@H](N)C(=O)O; NMeV = CN[C@H](C(=O)O)C(C)C; Sar = CNCC(=O)O", "data": [{"smiles": "C(=N/NC1=NCCN1)/c1c2ccccc2c(/C=N\\NC2=NCCN2)c2ccccc12", "values": [{"measurement": "T/C", "setting": "dose: 5.18 mg/kg/injection, schedule: Q04DX002 (ip), vehicle: saline", "result": "103 % of control"}, {"measurement": "T/C", "setting": "dose: 8.64 mg/kg/injection, schedule: Q04DX002 (ip), vehicle: saline", "result": "108 % of control"}, {"measurement": "T/C", "setting": "dose: 13.0 mg/kg/injection, schedule: Q04DX002 (ip), vehicle: water", "result": "111 % of control"}, {"measurement": "T/C", "setting": "dose: 14.4 mg/kg/injection, schedule: Q04DX002 (ip), vehicle: saline", "result": "105 % of control"}, {"measurement": "T/C", "setting": "dose: 21.6 mg/kg/injection, schedule: Q04DX002 (ip), vehicle: water", "result": "118 % of control"}, {"measurement": "T/C", "setting": "dose: 36.0 mg/kg/injection, schedule: Q04DX002 (ip), vehicle: water", "result": "111 % of control"}, {"measurement": "T/C", "setting": "dose: 40.0 mg/kg/injection, schedule: Q04DX002 (ip), vehicle: saline", "result": "98 % of control"}, {"measurement": "T/C", "setting": "dose: 60.0 mg/kg/injection, schedule: Q04DX002 (ip), vehicle: water", "result": "109 % of control"}]}, {"smiles": "CC[C@H]1CN2CCc3cc(OC)c(OC)cc3[C@@H]2C[C@@H]1C[C@H]1NCCc2cc(OC)c(OC)cc21", "values": [{"measurement": "T/C", "setting": "dose: 4.32 mg/kg/injection, schedule: Q04DX003 (ip), vehicle: saline", "result": "111 % of control"}, {"measurement": "T/C", "setting": "dose: 5.18 mg/kg/injection, schedule: Q04DX003 (ip), vehicle: saline", "result": "111 % of control"}, {"measurement": "T/C", "setting": "dose: 7.2 mg/kg/injection, schedule: Q04DX003 (ip), vehicle: saline", "result": "121 % of control"}, {"measurement": "T/C", "setting": "dose: 8.64 mg/kg/injection, schedule: Q04DX003 (ip), vehicle: saline", "result": "121 % of control"}, {"measurement": "T/C", "setting": "dose: 12.0 mg/kg/injection, schedule: Q04DX003 (ip), vehicle: saline", "result": "121 % of control"}, {"measurement": "T/C", "setting": "dose: 14.4 mg/kg/injection, schedule: Q04DX003 (ip), vehicle: saline", "result": "156 % of control"}, {"measurement": "T/C", "setting": "dose: 24.0 mg/kg/injection, schedule: Q04DX003 (ip), vehicle: saline", "result": "175 % of control and 228 % of control"}]}, {"smiles": "COc1cc([C@@H]2c3cc4c(cc3[C@@H](OC3OC5COC(C)OC5C(O)C3O)[C@H]3COC(=O)[C@H]23)OCO4)cc(OC)c1O", "note": "(some centres undefined)", "values": [{"measurement": "T/C", "setting": "dose: 7.78 mg/kg/injection, schedule: Q04DX003 (ip), vehicle: water", "result": "123 % of control"}, {"measurement": "T/C", "setting": "dose: 13.0 mg/kg/injection, schedule: Q04DX003 (ip), vehicle: water", "result": "124 % of control"}, {"measurement": "T/C", "setting": "dose: 18.0 mg/kg/injection, schedule: Q04DX003 (ip), vehicle: clinical formulation", "result": "155 % of control"}, {"measurement": "T/C", "setting": "dose: 18.0 mg/kg/injection, schedule: Q04DX003 (ip), vehicle: water", "result": "153 % of control"}, {"measurement": "T/C", "setting": "dose: 30.0 mg/kg/injection, schedule: Q04DX003 (ip), vehicle: clinical formulation", "result": "162 % of control"}, {"measurement": "T/C", "setting": "dose: 30.0 mg/kg/injection, schedule: Q04DX003 (ip), vehicle: water", "result": "105 % of control"}, {"measurement": "T/C", "setting": "dose: 50.0 mg/kg/injection, schedule: Q04DX003 (ip), vehicle: clinical formulation", "result": "166 % of control"}]}, {"smiles": "O=C(Nc1ccc(C2=NCCCN2)cc1)c1ccc(C(=O)Nc2ccc(C3=NCCCN3)cc2)cc1", "values": [{"measurement": "T/C", "setting": "dose: 4.32 mg/kg/injection, schedule: Q04DX003 (ip), vehicle: Klucel (hydroxypropylcellulose) (HPC)", "result": "110 % of control"}, {"measurement": "T/C", "setting": "dose: 6.48 mg/kg/injection, schedule: Q04DX003 (ip), vehicle: Klucel (hydroxypropylcellulose) (HPC)", "result": "106 % of control"}, {"measurement": "T/C", "setting": "dose: 7.2 mg/kg/injection, schedule: Q04DX003 (ip), vehicle: Klucel (hydroxypropylcellulose) (HPC)", "result": "110 % of control"}, {"measurement": "T/C", "setting": "dose: 10.8 mg/kg/injection, schedule: Q04DX003 (ip), vehicle: Klucel (hydroxypropylcellulose) (HPC)", "result": "110 % of control and 119 % of control"}, {"measurement": "T/C", "setting": "dose: 12.0 mg/kg/injection, schedule: Q04DX003 (ip), vehicle: Klucel (hydroxypropylcellulose) (HPC)", "result": "112 % of control"}, {"measurement": "T/C", "setting": "dose: 18.0 mg/kg/injection, schedule: Q04DX003 (ip), vehicle: Klucel (hydroxypropylcellulose) (HPC)", "result": "107 % of control and 121 % of control"}, {"measurement": "T/C", "setting": "dose: 20.0 mg/kg/injection, schedule: Q04DX003 (ip), vehicle: Klucel (hydroxypropylcellulose) (HPC)", "result": "111 % of control"}, {"measurement": "T/C", "setting": "dose: 30.0 mg/kg/injection, schedule: Q04DX003 (ip), vehicle: Klucel (hydroxypropylcellulose) (HPC)", "result": "100 % of control"}, {"measurement": "T/C", "setting": "dose: 50.0 mg/kg/injection, schedule: Q04DX003 (ip), vehicle: Klucel (hydroxypropylcellulose) (HPC)", "result": "107 % of control"}]}, {"smiles": "Cc1c2oc3c(C)ccc(C(=O)N[C@@H]4C(=O)N[C@H](C(C)C)C(=O)N5CCC[C@H]5C(=O)N(C)CC(=O)N(C)[C@@H](C(C)C)C(=O)O[C@H]4C)c3nc-2c(C(=O)N[C@@H]2C(=O)N[C@H](C(C)C)C(=O)N3CCC[C@H]3C(=O)N(C)CC(=O)N(C)[C@@H](C(C)C)C(=O)O[C@H]2C)c(N)c1=O", "note": "(I: [aThr][dV]P[Sar][NMeV] / II: [aThr][dV]P[Sar][NMeV]; ester I:1-I:C, II:1-II:C; linker I:N-II:N via Actinocin(9to1))", "values": [{"measurement": "T/C", "setting": "dose: 108.0 micrograms/kg/injection, schedule: Q04DX003 (ip), vehicle: saline + alcohol", "result": "152 % of control and 154 % of control"}, {"measurement": "T/C", "setting": "dose: 130.0 micrograms/kg/injection, schedule: Q04DX003 (ip), vehicle: saline + alcohol", "result": "152 % of control"}, {"measurement": "T/C", "setting": "dose: 180.0 micrograms/kg/injection, schedule: Q04DX003 (ip), vehicle: saline + alcohol", "result": "157 % of control and 176 % of control"}, {"measurement": "T/C", "setting": "dose: 216.0 micrograms/kg/injection, schedule: Q04DX003 (ip), vehicle: saline + alcohol", "result": "200 % of control"}, {"measurement": "T/C", "setting": "dose: 300.0 micrograms/kg/injection, schedule: Q04DX003 (ip), vehicle: saline + alcohol", "result": "192 % of control and 201 % of control"}, {"measurement": "T/C", "setting": "dose: 360.0 micrograms/kg/injection, schedule: Q04DX003 (ip), vehicle: saline + alcohol", "result": "206 % of control"}, {"measurement": "T/C", "setting": "dose: 500.0 micrograms/kg/injection, schedule: Q04DX003 (ip), vehicle: saline + alcohol", "result": "209 % of control"}, {"measurement": "T/C", "setting": "dose: 600.0 micrograms/kg/injection, schedule: Q04DX003 (ip), vehicle: saline + alcohol", "result": "227 % of control"}]}]}
